From patent US12065442B2, “Tropomyosin receptor kinase (TRK) degradation compounds and methods of use” (Cullgen (Shanghai), Inc., priority 2018, dated 2024)

system: KM12 cells; test: Cell viability assay (CellTiter-Glo) in KM12 cells; assay type: cell-based; details: Homo sapiens, 72 h; Table 2; KM12 cell viability, CellTiter-Glo, 3 days; read-out: IC50

SMILES | IC50
Cc1ncsc1-c1ccc(CNC(=O)[C@@H]2C[C@@H](O)CN2C(=O)[C@@H](NC(=O)COCCOCCOCCOCCOCC(=O)N2CCN(c3ccc(C(=O)Nc4n[nH]c5ccc(Cc6cc(F)cc(F)c6)cc45)c(NC4CCOCC4)c3)CC2)C(C)(C)C)cc1 [CPD-040, (2S,4R)-1-((S)-2-(tert-butyl)-20-(4-(4-((5-(3,5-Difluorobenzyl)-1H-indazol-3-yl)carbamoyl)-3-((tetrahydro-2H-pyran-4-yl)amino)phenyl)piperazin-1-yl)-4,20-dioxo-6,9,12,15,18-pentaoxa-3-azaicosanoyl)-4-hydroxy-N-(4-(4-methylthiazol-5-yl)benzyl)pyrrolidine-2-carboxamide] | 600 nM
Cc1ncsc1-c1ccc(CNC(=O)[C@@H]2C[C@@H](O)CN2C(=O)[C@@H](NC(=O)CCCC(=O)N2CCN(c3cccc(-c4cnc5ccc(N6CCC[C@@H]6c6cccc(F)c6)nn45)n3)CC2)C(C)(C)C)cc1 [CPD-012, (2S,4R)-1-((S)-2-(5-(4-(6-(6-((R)-2-(3-Fluorophenyl)pyrrolidin-1-yl)imidazo[1,2-b]pyridazin-3-yl)pyridin-2-yl)piperazin-1-yl)-5-oxopentanamido)-3,3-dimethylbutanoyl)-4-hydroxy-N-(4-(4-methylthiazol-5-yl)benzyl)pyrrolidine-2-carboxamide] | > 1000 nM

same assay, conditions: Homo sapiens, 72 h; Table 3; KM12 cell viability, CellTiter-Glo, 3 days; read-out: IC50

SMILES | IC50
O=C(CN1CCN(c2cccc(-c3cnc4ccc(N5CCC[C@@H]5c5cccc(F)c5)nn34)n2)CC1)NCCOCCOCCOCCNc1ccc2c(c1)C(=O)N(C1CCC(=O)NC1=O)C2=O (stereo partly drawn) [TR-129, N-(2-(2-(2-(2-((2-(2,6-dioxopiperidin-3-yl)-1,3-dioxoisoindolin-5-yl)amino)ethoxy)ethoxy)ethoxy)ethyl)-2-(4-(6-(6-((R)-2-(3-fluorophenyl)pyrrolidin-1-yl)imidazo[1,2-b]pyridazin-3-yl)pyridin-2-yl)piperazin-1-yl)acetamide] | 4.4 nM
O=C(CN1CCN(c2cccc(-c3cnc4ccc(N5CCC[C@@H]5c5cccc(F)c5)nn34)n2)CC1)NCCCCCCCCNc1cccc2c1C(=O)N(C1CCC(=O)NC1=O)C2=O (stereo partly drawn) [TR-102, N-(8-((2-(2,6-dioxopiperidin-3-yl)-1,3-dioxoisoindolin-4-yl)amino)octyl)-2-(4-(6-(6-((R)-2-(3-fluorophenyl)pyrrolidin-1-yl)imidazo[1,2-b]pyridazin-3-yl)pyridin-2-yl)piperazin-1-yl)acetamide] | 44.4 nM
O=C(CN1CCN(c2cccc(-c3cnc4ccc(N5CCC[C@@H]5c5cccc(F)c5)nn34)n2)CC1)NCCCNc1ccc2c(c1)C(=O)N(C1CCC(=O)NC1=O)C2=O (stereo partly drawn) [TR-127, N-(3-((2-(2,6-dioxopiperidin-3-yl)-1,3-dioxoisoindolin-5-yl)amino)propyl)-2-(4-(6-(6-((R)-2-(3-fluorophenyl)pyrrolidin-1-yl)imidazo[1,2-b]pyridazin-3-yl)pyridin-2-yl)piperazin-1-yl)acetamide] | 2.7 nM
O=C1CCC(N2C(=O)c3ccc(NCCOCCOCCOCCOCCOCCC(=O)N4CCN(c5ccc(C(=O)Nc6n[nH]c7ccc(Cc8cc(F)cc(F)c8)cc67)c(NC6CCOCC6)c5)CC4)cc3C2=O)C(=O)N1 (stereo not shown) [TR-137, N-(5-(3,5-Difluorobenzyl)-1H-indazol-3-yl)-4-(4-(1-((2-(2,6-dioxopiperidin-3-yl)-1,3-dioxoisoindolin-5-yl)amino)-3,6,9,12,15-pentaoxaoctadecan-18-oyl)piperazin-1-yl)-2-((tetrahydro-2H-pyran-4-yl)amino)benzamide] | 2.5 nM
O=C(CN1CCN(c2ccc(C(=O)Nc3n[nH]c4ccc(Cc5cc(F)cc(F)c5)cc34)c(NC3CCOCC3)c2)CC1)NCCCCCCCCNc1ccc2c(c1)C(=O)N(C1CCC(=O)NC1=O)C2=O (stereo not shown) [TR-159, N-(5-(3,5-Difluorobenzyl)-1H-indazol-3-yl)-4-(4-(2-((8-((2-(2,6-dioxopiperidin-3-yl)-1,3-dioxoisoindolin-5-yl)amino)octyl)amino)-2-oxoethyl)piperazin-1-yl)-2-((tetrahydro-2H-pyran-4-yl)amino)benzamide] | 30.4 nM
